In patent US4997838A, “Pyrrolopyrimidine derivatives, their production and use” (Takeda Chemical Industries, Ltd., priority 1988, dated 1991):
Converted amounts (≈) assume the structure as drawn. Each block holds one compound with its values, some of them ahead of it.

Legend:
[1] = test system: dihydrofolic acid reductase; conditions: in words; cited from earlier work
solid cancer = conditions: in words; clinical use; cited from earlier work
[2] = test system: Human nasopharyngeal cancer KB cells; experiment: cell growth inhibiting effect in KB cells (MTT); assay type: cell-based; conditions: 72 hours
Method: Human nasopharyngeal cancer KB cells (1×10^4 cells/ml) prepared according to a conventional method were inoculated into each well of the 96-microwell plate (0.1 ml in a well) and subjected to standing culture at 37° C. under 5% CO2 for 24 hours. To this was added a solution of one of the compounds obtained in the Working Examples in 10% MEM (Nissui Pharmaceutical Co. Ltd.), and subjected again to standing culture at 37° C. under 5% CO2 for 72 hours. Then the culture was pipetted out, and another 0.1 ml of the solution of MTT (Dojindo Laboratories) in 10% MEM (1.0 mg/ml) was added and incubated at 37° C. for 4 hours. Then 0.1 ml of the 10% SDS solution (Wako Pure Chemicals) was added and incubated at 37° C. for further 24 hours. The absorbance at 590 nm was measured and the IC50 value of the compound was defined as the concentration of the compound required to decrease the number of cells in the untreated control group by 50%.

[3] = test system: Human Leukemia cells HL-60; experiment: cell growth inhibiting effect in HL-60 cells ([3H]-thymidine incorporation); assay type: cell-based; conditions: HL-60, 68 hours + 4 hours [3H]-thymidine
Method: (1) Human Leukemia cells HL-60 (2×10^5 cells/ml) were suspended in the GIT culture medium (Wako Pure Chemicals) containing the compound of this invention and 0.2 ml of the suspension was inoculated into each well of the 96-microwell plate. After standing culture at 37° C. under 5% CO2 for 68 hours, 1 μCi of [^3 H]-thymidine (5 Ci/mmol) was added and the mixture was incubated for 4 further hours. For measurement of the incorporation of thymidine into the cells, the acid-insoluble fraction was collected on a glass filter, and the radioactivity of the fraction was measured by a liquid scintillation counter. The IC50 value of the compound was defined as the concentration of the compound required to decrease the radioactivity incorporated into the cells in the untreated control group by 50%.

[4] = test system: Human fetal normal lung fibroblasts HEL; experiment: cell growth inhibiting effect in HEL cells (MTT); assay type: cell-based; conditions: Fibroblast, 72 hours
Method: (2) Human fetal normal lung fibroblasts HEL (1×10^4 cells/ml) were suspended in the MEM culture medium (Nippon Flow Laboratories) and 0.1 ml of the suspension was inoculated into each well of the 96-microwellplate. After standing culture at 37° C. under 5% CO2 for 24 hours, MEM culture medium containing the compound of this invention was added and the mixture was incubated for further 72 hours. The medium was replaced by the medium containing 1 μg/ml of MTT (Dojindo Laboratories), to which was added 10% SDS (Wako Pure Chemicals), and incubated overnight. Absorbance at 590 nm was measured by he Multiscan (Titertec Co.). The IC50 value was determined by comparing the absorbance in the untreated control group.

Structure (SMILES): CN(Cc1cnc2nc(N)nc(N)c2n1)c1ccc(C(=O)N[C@@H](CCC(=O)O)C(=O)O)cc1 [MTX]
inhibition of dihydrofolic acid reductase [1]: inhibit the reduction from dihydrofolic acid into tetrahydrofolic acid by coupling strongly with the dominant enzyme
effect on solid cancer (solid cancer): little effect on solid cancer
toxicity (solid cancer): relatively strong toxicity

Structure (SMILES): Nc1nc(N)c2c(CCCc3ccc(C(=O)N[C@@H](CCC(=O)O)C(=O)O)cc3)c[nH]c2n1 [Working Example 4, N-[4-[3-(2,4-diamino-7H-pyrrolo [2,3-d]pyrimidin-5-yl)propyl]benzoyl]-L-glutamic acid]
IC50 [2]: 0.0003 µg/mL (≈ 0.681 nM)

The next lines start with results.

IC50 [2]: 0.08 µg/mL (≈ 175 nM)
Structure (SMILES): Nc1nc(N)c2c(CCCc3ccc(C(=O)N[C@@H](CCC(=O)O)C(=O)O)cc3)c(O)[nH]c2n1 [Working Example 6, N-[4-[3-(2,4-diamino-6-hydroxy-7H-pyrrolo[2,3-d]pyrimidin-5-yl)propyl]benzoyl]-L-glutamic acid]

IC50 [3]: 0.04 µg/mL
Structure (SMILES): Nc1nc(O)c2c(n1)NCC2CCCc1ccc(C(=O)N[C@@H](CCC(=O)O)C(=O)O)cc1 (stereo partly drawn) [Working Example 14, N-[4-[3-(2-amino-4-hydroxy-5,6-dihydropyrrolo[2,3-d]pyrimidin-5-yl)propyl]benzoyl]-L-glutamic acid]
IC50 [4]: > 20 µg/mL

IC50 [2]: 0.0006 µg/mL (≈ 1.36 nM)
Structure (SMILES): Nc1nc(N)c2c(n1)NCC2CCCc1ccc(C(=O)N[C@@H](CCC(=O)O)C(=O)O)cc1 (stereo partly drawn) [Working Example 16, N-[4-[3-(2,4-diamino-5,6-dihydropyrrolo[2,3-d]pyrimidin-5-yl)propyl]benzoyl]-L-glutamic acid]
